{"source": "ChEMBL document CHEMBL5325479", "about": "“Synthesis and biological evaluation of sulfonylpyridine derivatives as potential anti-chlamydia agents” (Bioorg Med Chem, 2023)", "note": "Active and inactive are the calls of the source. The calls are words filed in the database; no cut-off is given here."}
{"system": "Escherichia coli", "assay": "Antibacterial activity against Escherichia coli K12 assessed as bacterial death measured upto 256 ug/ml", "type": "functional, organism-based", "conditions": "dose <= 256.0 µg/ml"}
{"smiles": "CC(C)(C(=O)NCCCSc1ccc(Cl)cc1)S(=O)(=O)c1ccc(Br)cn1", "Activity": "inactive"}
{"system": "HEp-2", "assay": "Cytotoxicity against human HEp-2 cells assessed as cell viability at 4 to 128 ug/ml measured after 24 hrs by XTT assay", "type": "toxicity, cell-based", "conditions": "hep-2, 24 h, dose 4-128 µg/ml"}
{"smiles": "CC(C)(C(=O)NCCCSc1ccc(Cl)cc1)S(=O)(=O)c1ccc(Br)cn1", "Activity": "Toxic"}
{"system": "not listed separately", "assay": "Cytotoxicity against human HEC-1-A cells assessed as cell survival at 128 ug/ml measured after 24 hrs by XTT assay", "type": "toxicity, cell-based", "conditions": "at 128 µg/mL, read-out: Survival", "units": {"viability at 24 h, 128 ug/ml": "%"}}
{"smiles": "CC(C)(C(=O)NCCCSc1ccc(Cl)cc1)S(=O)(=O)c1ccc(Br)cn1", "viability at 24 h, 128 ug/ml": 100}
{"system": "not listed separately", "assay": "Stability of the compound in simulated gastric fluid at pH 1.2 measured after 24 hrs by HPLC analysis", "type": "ADME", "conditions": "simulated gi fluid, pH 1.2, 24 h"}
{"smiles": "CC(C)(C(=O)NCCCSc1ccc(Cl)cc1)S(=O)(=O)c1ccc(Br)cn1", "Stability": "Stable"}
{"system": "Staphylococcus aureus", "assay": "Antibacterial activity against Staphylococcus aureus USA 300 JE2 assessed as bacterial death measured upto 256 ug/ml", "type": "functional, organism-based", "conditions": "dose <= 256.0 µg/ml"}
{"smiles": "CC(C)(C(=O)NCCCSc1ccc(Cl)cc1)S(=O)(=O)c1ccc(Br)cn1", "Activity": "inactive"}
{"system": "Chlamydia trachomatis", "assay": "Anti-chlamydia activity against Chlamydia trachomatis serovar L2 infected in human HEp-2 cells assessed as inhibition of inclusion growth measured treated 8 hrs POI followed measured after 16 hrs by immunofluorescence assay", "type": "functional, organism-based", "conditions": "serovar L2, HEp-2", "units": {"IC50": "µg/mL"}}
{"smiles": "COc1ccc(OCCNC(=O)C(C)(C)S(=O)(=O)c2ccc(C(F)(F)F)cn2)cc1", "IC50": 42.2}
{"smiles": "CC(C)(C(=O)NCCSc1cccc(Cl)c1)S(=O)(=O)c1ccc(C(F)(F)F)cn1", "IC50": 17.9}
{"smiles": "Cc1ccc(OCCNC(=O)C(C)(C)S(=O)(=O)c2ccc(C(F)(F)F)cn2)cc1", "IC50": 29.8}
{"smiles": "Cc1ccc(SCCCNC(=O)C(C)(C)S(=O)(=O)c2ccc(Br)cn2)cc1", "IC50": 16.1}
{"smiles": "CC(C)(C(=O)NCCNc1ccccc1)S(=O)(=O)c1ccc(Br)cn1", "IC50": 11.7}
{"smiles": "CC(C)(C(=O)NCCCSc1ccc(Cl)cc1)S(=O)(=O)c1ccc(C(F)(F)F)cn1", "IC50": 3.88}
{"smiles": "Cc1ccccc1OCCCNC(=O)C(C)(C)S(=O)(=O)c1ccc(Br)cn1", "IC50": 3.47}
{"smiles": "CC(C)(C(=O)NCCCSc1ccc(Cl)cc1)S(=O)(=O)c1ccc(Br)cn1", "IC50": 2.33}
{"smiles": "Cc1ccccc1OCCNC(=O)C(C)(C)S(=O)(=O)c1ccc(Br)cn1", "IC50": 18.3}
{"smiles": "Cc1ccccc1OCCNC(=O)C(C)(C)S(=O)(=O)c1ccc(C(F)(F)F)cn1", "IC50": 28.9}
{"smiles": "CC(C)(C(=O)NCCNc1ccccc1)S(=O)(=O)c1ccc(C(F)(F)F)cn1", "IC50": 14.2}
{"smiles": "Cc1ccccc1OCCCNC(=O)C(C)(C)S(=O)(=O)c1ccc(C(F)(F)F)cn1", "IC50": 20.4}
{"smiles": "CC(C)(C(=O)NCCCSc1ccccc1)S(=O)(=O)c1ccc(C(F)(F)F)cn1", "IC50": 31.4}
{"smiles": "Cc1ccccc1SCCCNC(=O)C(C)(C)S(=O)(=O)c1ccc(C(F)(F)F)cn1", "IC50": 32.5}
{"smiles": "Cc1ccc(SCCNC(=O)C(C)(C)S(=O)(=O)c2ccc(C(F)(F)F)cn2)cc1", "IC50": 23.5}
{"smiles": "CC(C)(C(=O)NCCCOc1ccc(Cl)cc1)S(=O)(=O)c1ccc(C(F)(F)F)cn1", "IC50": 26.1}
{"smiles": "CC(C)(C(=O)NCCCSc1cccc(Cl)c1)S(=O)(=O)c1ccc(C(F)(F)F)cn1", "IC50": 14.8}
{"smiles": "COc1ccccc1OCCNC(=O)C(C)(C)S(=O)(=O)c1ccc(C(F)(F)F)cn1", "IC50": 39.8}
{"smiles": "Cc1ccccc1SCCNC(=O)C(C)(C)S(=O)(=O)c1ccc(C(F)(F)F)cn1", "IC50": 17.8}
{"system": "Chlamydia trachomatis", "assay": "Anti-chlamydia activity against Chlamydia trachomatis serovar L2 infected in human HEp-2 cells assessed as inhibition of inclusion growth measured at 0.78 to 50 ug/ml treated 8 hrs POI followed measured after 16 hrs by immunofluorescence assay", "type": "functional, organism-based", "conditions": "dose 0.78-50 µg/ml"}
{"smiles": "CC(C)(C(=O)NCCOc1ccc([N+](=O)[O-])cc1)S(=O)(=O)c1ccc(C(F)(F)F)cn1", "inhibition": "inactive"}
{"smiles": "CC(=O)N(CCNC(=O)C(C)(C)S(=O)(=O)c1ccc(C(F)(F)F)cn1)c1ccccc1", "inhibition": "inactive"}
{"smiles": "CC(C)(C(=O)NCCc1ccncc1)S(=O)(=O)c1ccc(C(F)(F)F)cn1", "inhibition": "inactive"}
{"smiles": "CN(CCSc1ccc(Cl)cc1)C(=O)C(C)(C)S(=O)(=O)c1ccc(C(F)(F)F)cn1", "inhibition": "inactive"}
{"smiles": "COc1ccccc1OCCCNC(=O)C(C)(C)S(=O)(=O)c1ccc(C(F)(F)F)cn1", "inhibition": "inactive"}
{"smiles": "Cc1ccc(OCCNC(=O)C(C)(C)S(=O)(=O)c2ccc(Br)cn2)cc1", "inhibition": "inactive"}
{"smiles": "CC(C)(C(=O)NCCCC1=NC2C=CC=CC2=N1)S(=O)(=O)c1ccc(C(F)(F)F)cn1", "note": "(stereo unspecified)", "inhibition": "inactive"}
